Experimental data reported in publication PMC11943725, “Construction of a Plasmid-Free Escherichia coli Strain with Enhanced Heme Supply to Produce Active Hemoglobins” (Metabolites, 2025).

Biological target: T1, human hemoglobin (hHb) (Homo sapiens, UniProt P68871+P69905)
T1 construct: gene HBA1; tetramer
Assay: peroxidase activity of purified protein with TMB Chromogen Solution, OD370
Type: biochemical
Conditions: chromogenic peroxidase substrate; holo fraction incomplete

T1 sequence (P69905 2-142): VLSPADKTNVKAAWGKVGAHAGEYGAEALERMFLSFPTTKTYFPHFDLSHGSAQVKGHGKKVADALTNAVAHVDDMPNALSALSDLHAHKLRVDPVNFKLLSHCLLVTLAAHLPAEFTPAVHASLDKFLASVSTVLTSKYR
T1 sequence (P68871 2-147): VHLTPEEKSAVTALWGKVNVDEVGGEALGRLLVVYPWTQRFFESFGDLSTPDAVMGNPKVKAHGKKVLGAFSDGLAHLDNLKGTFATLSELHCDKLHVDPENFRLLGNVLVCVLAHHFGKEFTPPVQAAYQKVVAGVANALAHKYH

Cc1cc(-c2cc(C)c(N)c(C)c2)cc(C)c1N [TMB]
peroxidase activity of purified protein with TMB Chromogen Solution, OD370: The peroxidase activities of purified proteins were detected using TMB Chromogen Solution
